Laboratory results as given in patent publication US9404081B2, “Pyruvate kinase activators for use in therapy” (AGIOS PHARMACEUTICALS, INC., priority 2011, dated 2016).

What was measured:
Type in all cases: biochemical
[1] = molecular target: PKR R510Q (Homo sapiens, UniProt P30613, R510Q); experiment: PKR R510Q Single Point Percent Activation Assay; settings: read-out: Act. % 510Q
Protocol: PKR R510Q Single Point Percent Activation Assay
(§1) A compound described herein was diluted with DMSO and tested at 1 μM concentration. The enzyme was diluted in 1× Buffer: (100 mM KCl, 50 mM Tris 7.5, 5 mM MgCl2, 1 mM DTT, 0.03% BSA). 2 μL of compound solution was first added into wells, and then 180 μL of enzyme solution was added. Assays were assembled except for ADP, and plates were stored for 60 minutes at RT. 20 μL ADP was added to start the assay and assay output was evaluated using OD340 at SpectraMax. The assay was run at room temperature.
Final concentration: PKR R510Q (40 ng/well), Tris pH 7.5 (50 mM), KCl (100 mM), MgCl2 (5 mM), ADP (0.2 mM), PEP (0.11 mM), NADH (180 μM), LDH (0.5 units, Sigma 59023), DTT (1 mM) and BSA (0.03%).

[2] = molecular target: PKR R532W (Homo sapiens, UniProt P30613, R532W); experiment: PKR R532W Single Point Percent Activation Assay; settings: read-out: Act, % 532W
Protocol: PKR R532W Single Point Percent Activation Assay
as §1
Final concentration: PKR R532W (100 ng/well), Tris pH 7.5 (50 mM), KCl (100 mM), MgCl2 (5 mM), ADP (0.36 mM), PEP (0.1 mM), NADH (180 μM), LDH (0.5 units, Sigma 59023), DTT (1 mM) and BSA (0.03%).

[3] = molecular target: PKR T384W (Homo sapiens, UniProt P30613, T384W); experiment: PKR T384W Single Point Percent Activation Assay; settings: read-out: Act. % 384W
Protocol: PKR T384W Single Point Percent Activation Assay
as §1, with “180 μL enzyme solution” for “180 μL of enzyme solution”
Final concentration: PKR T384W soluble (300 ng/well), Tris pH 7.5 (50 mM), KCl (100 mM), MgCl2 (5 mM), ADP (0.08 mM), PEP (0.23 mM), NADH (180 μM), LDH (0.5 units, Sigma 59023), DTT (1 mM) and BSA (0.03%).

[4] = molecular target: PKR wt (Homo sapiens, UniProt P30613); experiment: PKR WT Single Point Percent Activation Assay
Protocol: PKR WT Single Point Percent Activation Assay
as §1
Final concentration: PKR wt (100 ng/well), Tris pH 7.5 (50 mM), KCl (100 mM), MgCl2 (5 mM), ADP (0.48 mM), PEP (0.15 mM), NADH (180 μM), LDH (0.5 units, Sigma 59023), DTT (1 mM) and BSA (0.03%).

Sequence of PKR T384W (P30613 whole entry T384W): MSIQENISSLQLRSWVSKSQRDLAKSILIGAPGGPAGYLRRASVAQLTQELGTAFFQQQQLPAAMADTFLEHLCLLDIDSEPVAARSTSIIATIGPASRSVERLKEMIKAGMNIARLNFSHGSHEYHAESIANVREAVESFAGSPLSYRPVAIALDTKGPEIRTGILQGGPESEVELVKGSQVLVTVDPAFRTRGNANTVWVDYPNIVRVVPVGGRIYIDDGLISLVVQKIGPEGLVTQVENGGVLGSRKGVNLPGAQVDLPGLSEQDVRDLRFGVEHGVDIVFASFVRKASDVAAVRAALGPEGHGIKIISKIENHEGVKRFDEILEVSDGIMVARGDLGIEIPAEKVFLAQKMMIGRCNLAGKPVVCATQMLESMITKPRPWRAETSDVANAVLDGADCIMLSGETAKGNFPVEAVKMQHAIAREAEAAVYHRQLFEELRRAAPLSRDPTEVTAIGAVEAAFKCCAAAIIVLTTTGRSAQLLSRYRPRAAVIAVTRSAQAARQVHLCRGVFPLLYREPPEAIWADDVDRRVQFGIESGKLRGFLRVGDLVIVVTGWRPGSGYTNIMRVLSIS
Sequence of PKR wt (P30613 whole entry): as the sequence (P30613 whole entry T384W) above, with W384T counted along it
Sequence of PKR R532W (P30613 whole entry R532W): as the sequence (P30613 whole entry T384W) above, with W384T, R532W counted along it
Sequence of PKR R510Q (P30613 whole entry R510Q): as the sequence (P30613 whole entry T384W) above, with W384T, R510Q counted along it

Row | Structure (SMILES) | activation at 1 µM [1] | activation at 1 µM [2] | activation at 1 µM [3] | activation at 1 µM [4]
1 | C[C@H]1CN(C(=O)c2ccc(NS(=O)(=O)c3cccc4cccnc34)cc2)CCN1C(=O)c1ccccn1 | 1 to 100% | 101 to 500% | 101 to 500% | 101 to 500%
2 | C[C@H]1CN(C(=O)c2ccccn2)CCN1C(=O)c1ccc(NS(=O)(=O)c2cccc3cccnc23)cc1 | 1 to 100% | 101 to 500% | 1 to 100% | 101 to 500%
3 | C[C@@H]1CN(C(=O)c2ccc(NS(=O)(=O)c3cccc4cccnc34)cc2)CCN1C(=O)c1ccccn1 | 1 to 100% | 1 to 100% | 101 to 500% | 101 to 500%
4 | CC(C)[C@H]1CN(Cc2ccc(F)cc2)CCN1C(=O)c1ccc(NS(=O)(=O)c2cccc3cccnc23)cc1 | 1 to 100% | 1 to 100% | 101 to 500% | 1 to 100%
5 | CC(C)[C@H]1CN(Cc2cc(F)cc(F)c2)CCN1C(=O)c1ccc(NS(=O)(=O)c2cccc3cccnc23)cc1 | 1 to 100% | 1 to 100% | 101 to 500% | 1 to 100%
6 | CC(C)[C@H]1CN(C(C)c2ccc(F)cc2)CCN1C(=O)c1ccc(NS(=O)(=O)c2cccc3cccnc23)cc1 (some centres unmarked) | 1 to 100% | 101 to 500% | 101 to 500% | 101 to 500%
7 | O=C(c1ccc(NS(=O)(=O)c2cccc3cccnc23)cc1)N1CCN(CC2CC2)c2ccccc21 | 1 to 100% | 101 to 500% | 101 to 500% | 101 to 500%
8 | O=C(c1ccc(NS(=O)(=O)c2cccc3cccnc23)cc1)N1CCN(Cc2cc(F)cc(F)c2)c2ccccc21 | 1 to 100% | 101 to 500% | 101 to 500% | 101 to 500%
9 | CC(C)OC(=O)N1CCN(C(=O)c2ccc(NS(=O)(=O)c3cccc4cccnc34)cc2)c2ccccc21 | 1 to 100% | 1 to 100% | 1 to 100% | 1 to 100%
10 | C[C@H]1CN(CC2CC2)CCN1C(=O)c1ccc(NS(=O)(=O)c2cccc3cccnc23)cc1Cl | 1 to 100% | 1 to 100% | 1 to 100% | 1 to 100%
11 | C[C@H]1CN(Cc2cc(F)cc(F)c2)CCN1C(=O)c1ccc(NS(=O)(=O)c2cccc3cccnc23)cc1Cl | 101 to 500% | 101 to 500% | 1 to 100% | 1 to 100%
12 | O=C(c1ccc(NS(=O)(=O)c2cccc3cccnc23)cc1)N1CCN(CC2CC2)C[C@@H]1c1ccccc1 | 1 to 100% | 1 to 100% | 1 to 100% | 1 to 100%
13 | O=C(c1ccc(NS(=O)(=O)c2cccc3cccnc23)cc1)N1CCN(Cc2cc(F)cc(F)c2)C[C@@H]1c1ccccc1 | 101 to 500% | 1 to 100% | 1 to 100% | 1 to 100%
14 | CC(c1ccc(Cl)c(F)c1)N1CCN(C(=O)c2ccc(NS(=O)(=O)c3cccc4cccnc34)cc2)[C@@H](C)C1 (some centres unmarked) | 101 to 500% | 1 to 100% | 1 to 100% | 1 to 100%
15 | CC(c1ccccc1F)N1CCN(C(=O)c2ccc(NS(=O)(=O)c3cccc4cccnc34)cc2)[C@H](C)C1 (some centres unmarked) | 1 to 100% | 1 to 100% | 1 to 100% | 1 to 100%
16 | C[C@H]1CN(Cc2ccc(F)cc2)CCN1C(=O)c1ccc(NS(=O)(=O)c2cccc3cccnc23)cc1Cl | 1 to 100% | 101 to 500% | 1 to 100% | 1 to 100%
17 | C[C@H]1CN(Cc2ccc(Cl)c(F)c2)CCN1C(=O)c1ccc(NS(=O)(=O)c2cccc3cccnc23)cc1Cl | 1 to 100% | 101 to 500% | 101 to 500% | 1 to 100%
